Molecular target: T1, human factor Xa (Homo sapiens, UniProt P00742)
T1 construct: purchased Enzyme Research Laboratories
Assay: Factor Xa chromogenic peptide substrate assay (S-2222)
Type: biochemical
Protocol: Factor Xa activity was measured spectrophotometrically in microtiter plates in a final volume of 150 μl using the following conditions: Inhibition of human factor Xa (Enzyme Research Laboratories) was tested at an enzyme concentration of 3 nM using the chromogenic substrate S-2222 (Chromogenix AB, Mölndal, Sweden) at 200 nM. The reaction kinetics of the enzyme and the substrate were linear with both time and the enzyme concentration. The inhibitors were dissolved in DMSO and tested at various concentrations up to 100 μM. The inhibitors were diluted using HNPT buffer consisting of HEPES 100 mM, NaCl 140 mM, PEG 6000 0.1% and Tween 80 0.02%, pH 7.8. […] The velocity of the reaction was determined by the autoreader from the slope of the linear regression fit to 7 time points (1 minute). The initial velocity for each inhibitor concentration was determined by the slope of at least 4 time points in the linear phase by a linear regression fit (mOD/min^2). Apparent dissociation constants Ki were calculated according to Cheng and Prusoff [Cheng, Y. C.; Prusoff, W. H. Relationship between the inhibition constant (Ki) and the concentration of the inhibitor that causes 50 percent inhibition (IC50) of an enzyme reaction. Biochem. Pharmacol. 1973, 22, 3099-3108.] based on the IC50 and the respective Km, determined previously (Ki=IC50/(1+S/Km)). […]

T1 sequence (P00742 235-488 limits assumed): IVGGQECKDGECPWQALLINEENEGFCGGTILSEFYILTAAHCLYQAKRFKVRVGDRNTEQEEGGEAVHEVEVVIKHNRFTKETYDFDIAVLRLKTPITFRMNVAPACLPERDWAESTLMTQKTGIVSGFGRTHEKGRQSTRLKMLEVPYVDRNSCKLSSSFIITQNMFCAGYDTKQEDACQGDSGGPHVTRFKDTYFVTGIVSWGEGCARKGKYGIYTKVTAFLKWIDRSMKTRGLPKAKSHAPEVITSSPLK
T1 sequence (P00742 41-179 partner limits assumed): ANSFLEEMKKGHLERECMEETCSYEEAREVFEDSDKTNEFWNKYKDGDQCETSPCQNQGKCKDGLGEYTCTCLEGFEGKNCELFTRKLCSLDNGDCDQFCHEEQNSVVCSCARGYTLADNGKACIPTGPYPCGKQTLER

Work on `CNC(=O)CN1C[C@H](C(=O)Nc2ccc(Cl)cc2)[C@@H](C(=O)Nc2ccc(-n3ccccc3=O)cc2F)C1` [Example 26, (3R,4R)-1-Methylcarbamoylmethyl-pyrrolidine-3,4-dicarboxylic acid 3-[(4-chloro-phenyl)-amide] 4-{[2-fluoro-4-(2-oxo-2H-pyridin-1-yl)-phenyl]-amide}] yielded a Ki of 22 nM.

Source: patent US7550487B2, “Pyrrolidine-3,4-dicarboxamide derivatives” (Hoffmann-La Roche Inc., priority 2004, dated 2009)
